For the compound `COc1cc(OC)c(-c2cc3ccccc3[nH]2)cc1C=CC(=O)c1ccc(C(=O)O)cc1`, the melting point – broadly, the temperature, or range, at which the solid turns liquid – was 210 to 212 °C. The compound `Nc1nc(OCc2cccc(Br)c2)ncc1F` registered a melting point of 143 to 145 °C.

For the compound `CCOC(=O)C(=O)c1ccc(SCC2CC2)[nH]1`, the melting point stood at 46 °C. As for `Cc1ccc2ncc(C(=O)NC3CCCC3)c(=O)n2c1`, the melting point lay within 162 to 164 °C. `CC(=O)Nc1nc2c(s1)-c1c(c(-c3c[nH]cn3)nn1-c1ccccc1Cl)CC2` showed a melting point of 287 to 288 °C. In the case of `Nc1ccc(Oc2ccc(C(=O)O)c(O)c2)cc1` it was 187 to 188 °C; in that of `Cc1cc2c(cc1-c1cc(-c3ccc(C(=O)O)cc3)ccc1-c1ccccc1)C(C)(C)CCC2(C)C`, 217 °C; in that of `BrCc1ccc2nc(-c3cccs3)ccc2c1`, 95 °C. Turning to `COc1cccc(C(=O)N2c3ccccc3C(O)CC2C)c1` (configuration not stated), the melting point lay within 148 to 149 °C. The figure for `CNC(=S)C1=CC(CF)(CF)Oc2cc(Cl)c(Cl)cc21` is 142 to 143 °C; for `COc1cccc(-c2cccc(OC3SCC(O)C(O)C3O)c2)n1` (configuration not stated) it is 206 °C. In turn, `COc1cccc([C@H]2O[C@H](CC(=O)NCc3ccc(C(=O)O)o3)C(=O)N(CC(C)(C)CO)c3ccc(Cl)cc32)c1OC` showed a melting point of 128 to 131 °C.

With `O=C(O)c1ccc2c(c1)oc(=O)c1cc(C(=O)O)ccc12`, the melting point is > 300 °C. In the case of `CSc1nnc2c(=O)[nH]c(-c3ccccc3OCC(C)C)nc2n1` it was 237 to 238 °C; in that of `COc1cccc(NC(=O)C(C#N)C(=O)c2nn(-c3ccccc3)c3c2Cc2ccccc2-3)c1` (configuration not stated), 280 to 284 °C.

For `CC(=O)Nc1cc(C(C)(C)C)[nH]n1`, the melting point is 194 to 195 °C. Compound `O=C(Nc1nc(-c2ccco2)c(C(=O)C2CCOCC2)s1)c1ccco1` came in with a melting point of 196 to 198 °C. On to `CCOC(=O)c1cc2cc(OCCCOC)cc(N(C)S(=O)(=O)c3ccccn3)c2[nH]1`, for which the melting point fell in the range of 98 to 99 °C.

Regarding `O=C(CCC(O)c1ccc(CCNS(=O)(=O)c2ccc(Cl)cc2)cc1)Nc1nnn[nH]1` (configuration not stated), the melting point lay in the range of 194 to 196 °C.

Take `COc1ccccc1CC(=O)c1c(O)c2cccnc2n(-c2ccccc2)c1=O`: the melting point is 203 to 205 °C. Take `O=C(Nc1ccccc1)C1Cc2cc(Br)cc3[nH]c(=O)c(=O)n1c23` (configuration not stated): the melting point was > 300 °C. `Oc1cccc(CCc2cc(-c3ccccc3)n(-c3ccccc3)n2)c1` gave a melting point of 211 to 212 °C. In turn, `CN(CCCCP(=O)(O)O)S(=O)(=O)C(F)(F)C(F)(F)C(F)(F)C(F)(F)C(F)(F)C(F)(F)C(F)(F)C(F)(F)F` yielded a melting point of 150 to 163 °C. `O=C(O)c1ncn2c1[C@@H]1CCN1C(=O)c1c(Br)cccc1-2` showed a melting point of 178 to 180 °C. `CC(C)(C)OC(=O)N1CCC(C=C(Br)Br)CC1` showed a melting point of 82.3 to 83.9 °C.

Compound `CCOCc1nc2c(N)nc3ccccc3c2n1CCOCCNC(=O)c1ccccc1` registered a melting point of 154 to 156 °C. `CCOC(=O)Nc1ccc2oc(-c3ccccc3)cc2c1` displayed a melting point of 164 °C. The compound `CN(C)c1ccc(C(=O)CCCN2CCC(C(O)(c3ccccc3)c3ccccc3)CC2)cc1` yielded a melting point of 148 to 150 °C.

As to `COc1ccc(S(=O)(=O)N(COCC[Si](C)(C)C)c2ccccc2I)cc1`, the melting point was in the range of 69 to 70 °C. In the case of `c1cc2c3c(cccc3c1)NN=N2`, the melting point was in the range of 80 to 81 °C. Compound `FC(F)(F)c1cc(-c2ccc(Cl)c(Cl)c2)nc2c(-c3ccccn3)cnn12` returned a melting point of 188 °C. Compound `COC(=O)c1ccc(OC)c(NC(=NCl)c2ccc(Cl)cc2)c1` had a melting point of 120 °C. The figure for `O=C(O)C1=Cc2cc(C#Cc3ccccc3)ccc2OC1C(F)(F)F` (configuration not stated) is 240 to 241 °C; for `O=C(NC12CC3CC(CC(C3)C1)C2)c1ncon1` it is 141 to 142 °C; for `C=CCCCOc1cc(OCCCCCCCC)ccc1C(=O)O` it is 67 to 68 °C.

`O=C(c1ccc(Cl)cc1)c1c(N2C(=O)c3ccccc3C2=O)sc(-c2ccccc2)c1CBr`: the melting point was 160 to 161 °C.

Regarding `CCNC1CCN(c2c(F)c(N)c3c(=O)c(C(=O)O)cn(C4CC4)c3c2OC)CC1C` (configuration not stated), the melting point lay in the range of 230 to 232 °C. Compound `N#Cc1cnn(-c2ccccn2)c1SCc1ccccc1` registered a melting point of 110 to 115 °C. In turn, `CC(C)CCCC(C)C1CCC2C3=CC=C4CC(OC(=O)c5ccccc5)CC(OC(=O)c5ccccc5)C4(C)C3CCC21C` (configuration not stated) yielded a melting point of 161 °C. As for `COc1ccccc1NC(=O)Nc1nc(Nc2ccccc2-c2ccccc2)nc(N(CC(=O)O)Cc2ccc(C)cc2)n1`, the melting point was in the range of 132 to 145 °C. In the case of `COC(=O)CN1C(=O)c2c(c3cc(C)ccc3n2C)S1(=O)=O` it was 248 °C; in that of `O=C(Nc1ccc2scnc2c1C1CCN(C/C=C/c2ccc(Cl)cc2)CC1)c1ccnc(Cl)c1`, 99 to 103 °C; in that of `CCCCn1cc(C(=O)C(=O)O)c2cc(-c3cccc(Cl)c3)ccc21`, 108 to 109 °C. Compound `O=C(O)CCCCCc1nn(Cc2ccccc2)c2c1CCC2` showed a melting point of 94 to 95 °C. Compound `Cc1cccc(C(=O)c2[nH]c3ccc(Cl)cc3c2CC(=O)O)c1` displayed a melting point of 173 to 174 °C.

For `CC(C)(C)OC(=O)N[C@@H](COc1ccccc1N)C(=O)O`, the melting point lay within 90 to 91 °C. As for `CN(C)c1ccc(C(=O)Nc2nc(-c3ccco3)c(C(=O)C3CCOCC3)s2)cc1`, the melting point fell in the range of 238 to 240 °C. As for `COC(=O)c1ccc(Cn2nc(O)c3[nH]c4cc(Cl)ccc4c(=O)c3c2=O)cc1`, the melting point is > 290 °C. Compound `CCCC(=O)COS(=O)(=O)c1c(C)cc(C)cc1C` yielded a melting point of 57.5 to 58.5 °C.

In the case of `C#CCN(Cc1ccc2nc(C)[nH]c(=O)c2c1)c1ccc(C(=O)NCC(OC(C)=O)c2ccccc2)cc1` (configuration not stated), the melting point lay within 203 to 205 °C.

Regarding `O=[N+]([O-])c1oc2ccc(CN3CCN(c4ccccc4)CC3)cc2c1-c1ccccc1`, the melting point lay in the range of 155 to 157 °C. As to `CN(C)c1cccc([N+](=O)[O-])c1CC=NNC(N)=O`, the melting point fell in the range of 156 to 157 °C.

As for `CP(C)(=O)CNc1cc(Oc2ccc(C(F)(F)F)cc2Cl)ccc1[N+](=O)[O-]`, the melting point was in the range of 166 to 168 °C.

As to `O=C(NCc1ccccc1)OCC(=O)c1ccccc1`, the melting point lay within 110 to 112 °C. As for `Nc1nccc(Oc2ccc3c(c2)CCCN3)n1`, the melting point fell in the range of 180 to 182 °C. As to `O=C(NCc1cc(C(F)(F)F)cc(C(F)(F)F)c1)c1c(-c2ccccc2)c2cccnc2c(=O)n1CCCO`, the melting point fell in the range of 129 to 130 °C. `COC(=O)CCCc1nc(Cl)c2c(n1)[nH]c1ccccc12` returned a melting point of 258 °C. In the case of `Brc1cn2c(Br)cnc2c(N2CCCCC2)n1` it was 72 °C; in that of `O=C(Oc1cc([N+](=O)[O-])ccc1[N+](=O)[O-])c1cc2ccccc2oc1=O`, 223 to 225 °C; in that of `COC(=O)c1nc2cccc(Br)c2c(O)c1C(=O)OC`, 124 to 126 °C.

For `O=C(N[C@H]1CC[C@@H](F)CC1)OCc1ccccc1`, the melting point was in the range of 105 to 107 °C. `CCc1c(OC)nc(OC)nc1C(=O)c1cc(C)cc(CO)c1`: the melting point was in the range of 101 to 103 °C.

As for `COc1cccc(Oc2c(NCCOc3ncccn3)ncnc2NS(=O)(=O)c2ccc(C(C)(C)C)cc2)c1`, the melting point was 148 to 149 °C. In the case of `CC(C)Oc1ccc(CCCOc2cc(CCC(=O)O)n(-c3ccccc3)n2)c(Oc2ccc(C(F)(F)F)cn2)c1`, the melting point lay within 80 to 82 °C.

Compound `S=C(Nc1cccc(Cl)c1)N1CCCSC1c1ccc(Br)cc1` (configuration not stated) showed a melting point of 144 to 146 °C. `CCOC(=O)C1=C(C)NC(C)=C(C(=O)OCC)C1c1ccccc1O` registered a melting point of 159 to 161 °C.

Turning to `O=C(NCP(=O)(O)c1ccccc1)c1ccccc1`, the melting point lay in the range of 158 to 160 °C. Regarding `CC(=O)c1c(-c2ccnc3ccccc23)[nH]c(-c2ccnc3ccccc23)c1C`, the melting point is > 260 °C.

`COc1ccc(C(=O)Nc2ccccc2)cc1NCc1cc(F)cc(F)c1` displayed a melting point of 175 to 177 °C. In turn, `CCCCCCCCCCCCCCCCN(C)S(=O)(=O)c1ccc(Cl)c([N+](=O)[O-])c1` had a melting point of 74 to 75 °C.

Compound `CC(C)CN1CCCC[C@H]1CNc1nc(Oc2cccc3[nH]c(=O)c(N)nc23)cc(-c2ccc(C(F)(F)F)cc2)n1` came in with a melting point of 228 °C. As to `N#Cc1cnn2c(-c3cc(Cl)ccc3Cl)ccnc12`, the melting point lay within 202 to 204 °C. The compound `COC(=O)c1coc2cc(Oc3ccnc(N)n3)ccc12` had a melting point of 194 to 196 °C. In the case of `CCOC(=O)CNC(=O)c1ccc(CCC2CNc3nc(N)nc(O)c3C2)s1` (configuration not stated) it was 152 to 160 °C. The figure for `COC(=O)c1sc2ccc(OCc3cccnc3)cc2c1Cl` is 126 to 128 °C; for `Cc1ccc(C(=O)N[C@@H]2COc3c(C)ccc(N4CCN(C)CC4)c3C2)cc1` it is 191 to 192 °C.

With `O=C(O)Cc1cc(C(=O)Cc2ccc(C(=O)O)cc2)ccc1O`, the melting point was > 260 °C. `O=C(O)c1cn(-c2ccncc2F)c2nc(Cl)c(F)cc2c1=O` returned a melting point of 228 to 230 °C. `O=C(NCCN1CCNC1=O)Nc1ccccc1` returned a melting point of 162 to 164 °C. As for `COc1cc2c(=O)n3cccc3cnc2cc1OCc1ccccc1`, the melting point was in the range of 58 to 61 °C. The compound `COc1ccc(-c2c(N[C@H](C)c3ccccc3)c(=O)c2=O)cc1` registered a melting point of 159 to 160 °C. In the case of `Cc1c(CCl)sc2cc(Br)ccc12` it was 92 to 93 °C; in that of `CCCCCCc1ccc(C(=O)Nc2ccc3cc(CN4CCCC4)cnc3c2C)cc1`, 116 °C.

In turn, `CN(C)C(=O)C1CCN(c2c(Cl)cncc2Cl)CC1` came in with a melting point of 120 to 122 °C.

`Cc1c(CNC(C)C)ncn1C(c1ccccc1)(c1ccccc1)c1ccccc1`: the melting point fell in the range of 150 to 154 °C. In the case of `COc1ccc2c(c1)C(O)c1cc(CO)ccc1O2` (configuration not stated) it was 142 to 143 °C. Turning to `CC(=O)OCc1cc2cc(OCc3ccccc3)ccc2n1Cc1ccc(C(C)(C)C)cc1`, the melting point lay within 132 to 133 °C.

The values above are taken from a melting point compilation (Tetko et al.; mined from patent text by program, amines drawn as free bases though some values may be those of a salt).
